Assay results as given in publication PMC4858680, “A platinum-based hybrid drug design approach to circumvent acquired resistance to molecular targeted tyrosine kinase inhibitors” (Scientific Reports, 2016).
Numbering of substitutions follows the chain as printed. Where two headings read alike, the source gives them in different places.

How the values were obtained:
[1] = biological target: FLT1 (Homo sapiens, UniProt P17948); conditions: 10 μM
[2] = test system: FLT3(ITD); conditions: 10 μM
[3] = biological target: FYN (Homo sapiens, UniProt P06241); conditions: 10 μM
Sequence of FYN (P06241 whole entry): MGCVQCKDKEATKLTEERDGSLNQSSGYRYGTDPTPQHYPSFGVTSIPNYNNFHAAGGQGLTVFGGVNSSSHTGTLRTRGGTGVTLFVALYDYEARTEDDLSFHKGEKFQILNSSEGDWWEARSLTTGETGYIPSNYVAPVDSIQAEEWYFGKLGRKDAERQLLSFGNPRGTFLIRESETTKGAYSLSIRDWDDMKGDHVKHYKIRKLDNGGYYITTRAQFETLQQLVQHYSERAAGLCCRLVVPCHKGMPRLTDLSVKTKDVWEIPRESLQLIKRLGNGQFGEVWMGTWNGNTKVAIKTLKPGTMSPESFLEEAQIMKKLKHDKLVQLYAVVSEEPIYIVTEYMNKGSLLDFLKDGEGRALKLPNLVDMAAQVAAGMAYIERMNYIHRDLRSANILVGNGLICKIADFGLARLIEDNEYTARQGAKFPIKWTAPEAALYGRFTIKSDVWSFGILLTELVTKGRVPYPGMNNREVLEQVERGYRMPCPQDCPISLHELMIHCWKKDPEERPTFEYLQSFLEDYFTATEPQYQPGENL

[4] = biological target: T1, FLT3(R834Q) (Homo sapiens, UniProt P36888, R834Q)
T1 sequence (P36888 27-993 R834Q): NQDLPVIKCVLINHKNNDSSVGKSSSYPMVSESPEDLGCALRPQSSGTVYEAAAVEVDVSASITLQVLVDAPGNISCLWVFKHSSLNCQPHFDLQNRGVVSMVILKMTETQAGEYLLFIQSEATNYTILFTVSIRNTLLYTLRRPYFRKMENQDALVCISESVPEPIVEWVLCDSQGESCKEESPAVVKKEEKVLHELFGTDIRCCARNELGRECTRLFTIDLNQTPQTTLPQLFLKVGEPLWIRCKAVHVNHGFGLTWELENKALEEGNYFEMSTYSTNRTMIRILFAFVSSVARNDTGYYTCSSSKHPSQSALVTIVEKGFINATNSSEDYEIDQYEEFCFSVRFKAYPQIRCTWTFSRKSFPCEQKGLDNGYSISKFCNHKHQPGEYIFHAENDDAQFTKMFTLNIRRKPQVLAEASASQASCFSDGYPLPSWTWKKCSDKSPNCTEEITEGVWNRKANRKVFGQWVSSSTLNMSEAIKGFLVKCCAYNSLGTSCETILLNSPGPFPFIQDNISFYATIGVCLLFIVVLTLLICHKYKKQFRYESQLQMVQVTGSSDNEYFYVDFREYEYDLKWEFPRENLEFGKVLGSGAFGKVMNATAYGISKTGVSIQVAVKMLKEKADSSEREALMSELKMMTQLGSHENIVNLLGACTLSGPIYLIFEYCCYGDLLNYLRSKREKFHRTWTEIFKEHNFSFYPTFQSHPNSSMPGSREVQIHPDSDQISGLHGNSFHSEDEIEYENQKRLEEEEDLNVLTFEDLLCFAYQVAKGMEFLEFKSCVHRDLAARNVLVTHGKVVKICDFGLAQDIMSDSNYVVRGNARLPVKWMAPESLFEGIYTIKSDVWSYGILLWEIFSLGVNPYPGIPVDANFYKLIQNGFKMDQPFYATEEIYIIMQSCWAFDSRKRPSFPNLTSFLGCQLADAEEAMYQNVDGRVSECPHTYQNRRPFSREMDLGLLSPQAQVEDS

[5] = biological target: LTK (Homo sapiens, UniProt P29376); conditions: 10 μM
[6] = biological target: RET(V804TL) (Homo sapiens, UniProt P07949, V804L); conditions: 10 μM
Sequence of RET(V804TL) (P07949 29-1114 V804L): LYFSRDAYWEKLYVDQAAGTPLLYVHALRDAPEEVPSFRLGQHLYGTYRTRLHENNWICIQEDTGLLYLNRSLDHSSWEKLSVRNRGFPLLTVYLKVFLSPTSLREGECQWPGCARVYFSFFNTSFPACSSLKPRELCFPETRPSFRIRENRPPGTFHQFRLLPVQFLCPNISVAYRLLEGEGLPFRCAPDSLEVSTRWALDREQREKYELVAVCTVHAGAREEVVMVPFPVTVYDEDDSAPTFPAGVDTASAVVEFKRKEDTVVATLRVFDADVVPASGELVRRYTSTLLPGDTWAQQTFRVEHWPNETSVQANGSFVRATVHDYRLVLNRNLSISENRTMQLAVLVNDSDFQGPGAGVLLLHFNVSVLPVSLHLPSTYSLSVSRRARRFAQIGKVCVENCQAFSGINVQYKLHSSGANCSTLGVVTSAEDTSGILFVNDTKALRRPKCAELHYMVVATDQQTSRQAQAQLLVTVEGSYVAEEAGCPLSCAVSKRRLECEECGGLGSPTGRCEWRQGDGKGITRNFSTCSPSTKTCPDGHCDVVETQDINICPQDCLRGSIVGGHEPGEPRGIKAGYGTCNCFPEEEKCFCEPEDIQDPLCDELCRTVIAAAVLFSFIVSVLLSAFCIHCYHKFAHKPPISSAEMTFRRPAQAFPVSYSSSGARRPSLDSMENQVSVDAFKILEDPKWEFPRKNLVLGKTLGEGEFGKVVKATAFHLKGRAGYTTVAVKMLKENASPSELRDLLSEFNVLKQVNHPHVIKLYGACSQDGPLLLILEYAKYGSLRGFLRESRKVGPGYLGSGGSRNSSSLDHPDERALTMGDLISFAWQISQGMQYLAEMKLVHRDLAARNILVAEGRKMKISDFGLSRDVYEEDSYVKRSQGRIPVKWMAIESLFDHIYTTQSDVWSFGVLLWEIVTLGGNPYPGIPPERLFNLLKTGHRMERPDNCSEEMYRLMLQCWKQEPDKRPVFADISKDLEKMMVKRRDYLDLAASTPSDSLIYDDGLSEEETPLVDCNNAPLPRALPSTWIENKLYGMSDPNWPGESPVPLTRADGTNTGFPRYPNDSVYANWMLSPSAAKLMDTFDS

[7] = biological target: FRK (Homo sapiens, UniProt P42685); conditions: 10 μM
Sequence of FRK (P42685 whole entry): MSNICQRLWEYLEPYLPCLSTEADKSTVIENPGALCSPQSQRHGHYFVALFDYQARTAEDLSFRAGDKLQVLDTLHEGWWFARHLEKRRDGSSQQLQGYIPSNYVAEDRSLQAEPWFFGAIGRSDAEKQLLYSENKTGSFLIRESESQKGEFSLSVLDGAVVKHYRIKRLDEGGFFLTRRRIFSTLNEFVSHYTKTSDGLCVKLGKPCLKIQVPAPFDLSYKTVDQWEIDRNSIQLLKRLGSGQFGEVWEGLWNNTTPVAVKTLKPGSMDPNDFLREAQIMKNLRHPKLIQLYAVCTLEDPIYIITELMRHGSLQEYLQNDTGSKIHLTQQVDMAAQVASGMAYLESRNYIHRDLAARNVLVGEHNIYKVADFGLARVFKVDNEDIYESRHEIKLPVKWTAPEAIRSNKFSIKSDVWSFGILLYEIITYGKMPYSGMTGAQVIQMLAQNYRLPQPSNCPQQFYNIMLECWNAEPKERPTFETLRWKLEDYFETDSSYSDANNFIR

[8] = biological target: FGFR1 (Homo sapiens, UniProt P11362); conditions: 10 μM
Sequence of FGFR1 (P11362 22-822): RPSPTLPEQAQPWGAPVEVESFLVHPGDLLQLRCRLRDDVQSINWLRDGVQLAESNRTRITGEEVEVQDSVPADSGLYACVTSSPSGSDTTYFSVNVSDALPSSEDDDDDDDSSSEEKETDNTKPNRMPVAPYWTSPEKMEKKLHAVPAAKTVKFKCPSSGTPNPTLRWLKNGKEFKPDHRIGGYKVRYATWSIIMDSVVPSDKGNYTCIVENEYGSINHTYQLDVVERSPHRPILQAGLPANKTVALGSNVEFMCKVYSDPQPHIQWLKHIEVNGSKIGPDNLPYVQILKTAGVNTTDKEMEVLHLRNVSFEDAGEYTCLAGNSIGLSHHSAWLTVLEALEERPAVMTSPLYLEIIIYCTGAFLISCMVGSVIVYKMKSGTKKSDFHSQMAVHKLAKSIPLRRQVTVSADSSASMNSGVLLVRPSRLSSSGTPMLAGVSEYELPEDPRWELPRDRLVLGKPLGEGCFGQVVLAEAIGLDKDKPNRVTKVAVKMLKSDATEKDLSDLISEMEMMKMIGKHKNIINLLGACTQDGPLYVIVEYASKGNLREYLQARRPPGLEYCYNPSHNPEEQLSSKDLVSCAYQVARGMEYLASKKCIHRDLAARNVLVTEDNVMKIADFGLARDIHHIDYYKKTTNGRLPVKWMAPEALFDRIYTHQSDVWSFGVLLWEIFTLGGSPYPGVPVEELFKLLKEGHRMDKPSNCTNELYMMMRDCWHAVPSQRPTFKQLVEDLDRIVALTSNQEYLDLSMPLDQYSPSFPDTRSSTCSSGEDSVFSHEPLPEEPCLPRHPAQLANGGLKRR

[9] = biological target: PDGFRA (Homo sapiens, UniProt P16234); conditions: 10 μM
Sequence of PDGFRA (P16234 24-1089): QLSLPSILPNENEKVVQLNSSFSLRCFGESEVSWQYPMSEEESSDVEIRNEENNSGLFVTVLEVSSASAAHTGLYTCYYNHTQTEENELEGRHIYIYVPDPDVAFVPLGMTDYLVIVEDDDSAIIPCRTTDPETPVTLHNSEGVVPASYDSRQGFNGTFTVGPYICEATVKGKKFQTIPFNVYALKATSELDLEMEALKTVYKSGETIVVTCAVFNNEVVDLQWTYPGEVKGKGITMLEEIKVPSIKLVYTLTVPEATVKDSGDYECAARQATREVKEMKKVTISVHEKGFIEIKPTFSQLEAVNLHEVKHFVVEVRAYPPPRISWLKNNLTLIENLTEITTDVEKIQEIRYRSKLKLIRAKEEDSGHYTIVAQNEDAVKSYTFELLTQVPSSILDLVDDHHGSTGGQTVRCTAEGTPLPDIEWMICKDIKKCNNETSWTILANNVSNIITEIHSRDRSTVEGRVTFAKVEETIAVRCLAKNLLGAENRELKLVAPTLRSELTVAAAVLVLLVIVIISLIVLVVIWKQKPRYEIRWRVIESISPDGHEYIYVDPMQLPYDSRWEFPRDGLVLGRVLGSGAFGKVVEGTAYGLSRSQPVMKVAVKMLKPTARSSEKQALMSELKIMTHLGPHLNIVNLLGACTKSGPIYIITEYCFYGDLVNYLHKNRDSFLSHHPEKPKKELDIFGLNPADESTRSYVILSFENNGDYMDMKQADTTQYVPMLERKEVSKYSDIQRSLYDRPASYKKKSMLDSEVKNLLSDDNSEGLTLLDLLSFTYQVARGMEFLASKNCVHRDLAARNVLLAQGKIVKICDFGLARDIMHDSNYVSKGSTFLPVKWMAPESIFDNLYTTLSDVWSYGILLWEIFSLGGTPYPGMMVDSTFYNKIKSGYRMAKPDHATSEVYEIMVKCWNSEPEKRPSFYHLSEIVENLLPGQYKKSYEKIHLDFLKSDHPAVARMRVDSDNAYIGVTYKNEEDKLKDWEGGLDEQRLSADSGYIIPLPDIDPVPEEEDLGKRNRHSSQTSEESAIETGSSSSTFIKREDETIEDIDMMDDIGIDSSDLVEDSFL

[10] = biological target: T2, HCK (Homo sapiens, UniProt P08631); type: binding; conditions: 10 μM
T2 construct: purchased DiscoveRx KINOMEscan
T2 sequence (P08631 whole entry): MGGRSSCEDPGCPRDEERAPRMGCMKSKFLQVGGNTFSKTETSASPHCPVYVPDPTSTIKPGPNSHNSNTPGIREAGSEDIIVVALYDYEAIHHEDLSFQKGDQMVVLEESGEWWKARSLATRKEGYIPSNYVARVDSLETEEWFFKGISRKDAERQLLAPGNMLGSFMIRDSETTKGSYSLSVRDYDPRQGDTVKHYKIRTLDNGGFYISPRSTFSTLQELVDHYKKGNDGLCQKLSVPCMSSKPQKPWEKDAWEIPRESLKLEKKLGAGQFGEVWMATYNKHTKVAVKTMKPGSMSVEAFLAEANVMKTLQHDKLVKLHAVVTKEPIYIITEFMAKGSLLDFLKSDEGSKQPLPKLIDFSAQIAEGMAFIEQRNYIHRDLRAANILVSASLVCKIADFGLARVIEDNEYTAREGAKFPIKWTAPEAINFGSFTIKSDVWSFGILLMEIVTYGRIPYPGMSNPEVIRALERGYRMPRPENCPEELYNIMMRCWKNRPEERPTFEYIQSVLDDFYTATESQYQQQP

[11] = biological target: SYK (Homo sapiens, UniProt P43405); conditions: 10 μM
[12] = biological target: KIT(V559D) (Homo sapiens, UniProt P10721, V559D); assay: biochemical; conditions: read-out: Percent control
[13] = biological target: T3, FLT3 (Homo sapiens, UniProt P36888); assay: biochemical; conditions: read-out: Percent control
T3 sequence (P36888 27-993): T1 sequence (P36888 27-993 R834Q) with Q808R

Cc1ccc(NC(=O)c2ccc(CN3CCN(C)CC3)cc2)cc1Nc1nccc(-c2cccnc2)[n+]1[Pt-2]1([Cl])[NH2+]C2CCCCC2[NH2+]1 (centres unmarked) [1b, oxaliplatin-imatinib]
Percent control [1]: 85% | Percent control [2]: 74% | Percent control [3]: 78% | Percent control ([4]; FLT3(R834Q), 10 μM): 94% | Percent control [5]: 85% | Percent control [6]: 100% | Percent control [7]: 58% | Percent control [8]: 96% | Percent control [9]: 1.2% | Percent control [10]: 82%

C#Cc1cccc(Nc2c3cc(OCCOC)c(OCCOC)cc3nc[n+]2[Pt@SP2-2]([NH3+])([NH3+])[Cl])c1 [2a, cisplatin-erlotinib]
Percent control [1]: 88% | Percent control [2]: 79% | Percent control [3]: 72% | Percent control [4]: 80 | Percent control [11]: 88% | Percent control [5]: 82% | Percent control [6]: 100% | Percent control [7]: 75% | Percent control [8]: 77% | Percent control [9]: 100% | Percent control [10]: 64%

COc1cc2c(Nc3ccc(Br)cc3F)[n+]([Pt-2]3([Cl])[NH2+]C4CCCCC4[NH2+]3)cnc2cc1OCC1CCN(C)CC1 (centres unmarked) [3b, oxaliplatin-vandetanib]
Percent control [3]: 32% | Percent control [4]: 89 | Percent control [11]: 85% | Percent control [5]: 27% | Percent control [7]: 56% | Percent control [9]: 5.7%

C#Cc1cccc(Nc2ncnc3cc(OCCOC)c(OCCOC)cc23)c1 [Erlotinib]
Percent control [2]: 7.6% | remaining activity at 10 µM [12]: 23.7% | remaining activity at 10 µM [13]: 10.7%

Cc1ccc(NC(=O)c2ccc(CN3CCN(C)CC3)cc2)cc1Nc1nccc(-c2cccnc2)n1 [Imatinib, reference compound]
Percent control [1]: 100% | Percent control [2]: 38.7% | Percent control ([4]; FLT3(R834Q), 10 μM): 100% | Percent control [5]: 92% | Percent control [6]: 100% | remaining activity at 10 µM [12]: 0.1% | Percent control [7]: 13.0% | Percent control [8]: 100% | Percent control [10]: 100%

COc1cc2c(Nc3ccc(Br)cc3F)ncnc2cc1OCC1CCN(C)CC1 [Vandetanib, reference compound]
Percent control [2]: 15.3% | remaining activity at 10 µM [13]: 7.8%
